Test results published in publication PMC6371206 (ACS Pharmacology & Translational Science, 2019).
Read-outs that look alike come from different tables or passages of the source.

How the values were obtained:
[1] = biological target: hD2R (D2SR), Gi1 activation (Homo sapiens, UniProt P14416); experiment: cell-based; type: cell-based; conditions: for Emax: HEK293, read-out: Gi1 Activation Emax; for Gi1 Activation Emax: 30 min, normalized to quinpirole Emax; for Gi1 Activation Emax / EC50: hD2R in HEK293 cells; for EC50: Gi1 Activation EC50, 30 min
Chain of hD2R (D2SR), Gi1 activation (P14416 1-414 isoform P14416-2): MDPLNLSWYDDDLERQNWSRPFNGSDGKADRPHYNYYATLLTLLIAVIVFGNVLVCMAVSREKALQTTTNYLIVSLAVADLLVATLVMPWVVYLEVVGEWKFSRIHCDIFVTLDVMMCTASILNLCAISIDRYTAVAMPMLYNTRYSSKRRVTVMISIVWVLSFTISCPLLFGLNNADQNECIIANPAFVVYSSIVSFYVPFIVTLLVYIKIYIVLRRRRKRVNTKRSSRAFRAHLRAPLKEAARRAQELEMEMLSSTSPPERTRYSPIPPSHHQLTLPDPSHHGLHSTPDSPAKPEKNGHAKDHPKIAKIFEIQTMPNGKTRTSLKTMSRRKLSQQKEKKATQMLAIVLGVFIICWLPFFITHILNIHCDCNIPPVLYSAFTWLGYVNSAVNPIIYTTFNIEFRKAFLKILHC
Chain of hD2R (D2SR), Gi1 activation (P63096 2-354 partner limits assumed): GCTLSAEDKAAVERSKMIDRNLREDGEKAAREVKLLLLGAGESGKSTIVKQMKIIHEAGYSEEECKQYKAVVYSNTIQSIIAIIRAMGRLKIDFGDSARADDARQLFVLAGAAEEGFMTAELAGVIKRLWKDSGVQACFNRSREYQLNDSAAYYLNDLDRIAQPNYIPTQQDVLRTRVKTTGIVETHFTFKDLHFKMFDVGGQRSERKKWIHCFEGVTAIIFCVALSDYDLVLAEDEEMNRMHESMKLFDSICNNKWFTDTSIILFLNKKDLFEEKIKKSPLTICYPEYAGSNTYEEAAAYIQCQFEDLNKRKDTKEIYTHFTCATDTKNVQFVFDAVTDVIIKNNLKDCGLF
Chain of hD2R (D2SR), Gi1 activation (P62873 2-340 partner limits assumed): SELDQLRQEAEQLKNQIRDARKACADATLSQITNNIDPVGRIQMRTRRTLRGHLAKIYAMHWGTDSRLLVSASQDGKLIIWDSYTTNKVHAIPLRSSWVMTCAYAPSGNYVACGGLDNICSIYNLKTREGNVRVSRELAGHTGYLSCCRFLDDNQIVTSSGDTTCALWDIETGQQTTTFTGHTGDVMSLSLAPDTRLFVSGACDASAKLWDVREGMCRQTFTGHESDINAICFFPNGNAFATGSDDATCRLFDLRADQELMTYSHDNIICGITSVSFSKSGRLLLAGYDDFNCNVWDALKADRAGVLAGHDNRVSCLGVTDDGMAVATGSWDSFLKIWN
Chain of hD2R (D2SR), Gi1 activation (P59768 2-68 partner limits assumed): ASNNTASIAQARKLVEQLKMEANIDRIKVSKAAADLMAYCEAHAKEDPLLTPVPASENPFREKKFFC

hD2R = experiment: Pairwise bias factor calculation; type: cell-based, human; conditions: for Go-protein bias over β-arrestin: bias expressed as fold; for Bias factor GoA−βarrestin / Bias factor Gi1–GoA activation / Bias factor cAMP−βarrestin: logarithmic scale, relative to quinpirole, 30 min data; for Bias factor Gi1–GoA activation: negative = GoA bias
[2] = biological target: hD2R (D2SR), cAMP inhibition (Homo sapiens, UniProt P14416); experiment: cell-based; conditions: for Emax: HEK293, read-out: cAMP Inhibition Emax; for EC50: cAMP Inhibition EC50, 30 min, hD2R in HEK293 cells
Chain of hD2R (D2SR), cAMP inhibition (P14416 1-414 isoform P14416-2): as the sequence (P14416 1-414 isoform P14416-2) above

[3] = biological target: hD2R (D2SR), β-arrestin 2 recruitment (Homo sapiens, UniProt P14416); experiment: cell-based; type: cell-based; conditions: for Emax: HEK293, read-out: βArrestin2 Recruitment Emax
Chain of hD2R (D2SR), β-arrestin 2 recruitment (P14416 1-414 isoform P14416-2): as above
Chain of hD2R (D2SR), β-arrestin 2 recruitment (P32121 whole entry partner): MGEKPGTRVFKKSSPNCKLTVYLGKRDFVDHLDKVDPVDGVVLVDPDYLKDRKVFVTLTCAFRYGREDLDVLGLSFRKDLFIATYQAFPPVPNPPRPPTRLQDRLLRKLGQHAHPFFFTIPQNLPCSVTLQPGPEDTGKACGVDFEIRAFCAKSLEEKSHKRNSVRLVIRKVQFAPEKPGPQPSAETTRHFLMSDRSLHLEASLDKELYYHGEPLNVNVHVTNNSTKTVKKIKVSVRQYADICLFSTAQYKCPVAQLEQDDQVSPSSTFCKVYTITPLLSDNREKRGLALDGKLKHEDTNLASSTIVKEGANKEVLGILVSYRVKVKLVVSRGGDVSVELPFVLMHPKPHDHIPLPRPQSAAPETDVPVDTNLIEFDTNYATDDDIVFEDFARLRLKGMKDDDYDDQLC

[4] = biological target: hD2R (D2SR), GoA activation (Homo sapiens, UniProt P14416); experiment: cell-based; conditions: for EC50: GoA Activation EC50, 30 min, hD2R in HEK293 cells; for Emax: HEK293, read-out: GoA Activation Emax
Chain of hD2R (D2SR), GoA activation (P14416 1-414 isoform P14416-2): as the sequence (P14416 1-414 isoform P14416-2) above
Chain of hD2R (D2SR), GoA activation (P09471 2-354 partner limits assumed): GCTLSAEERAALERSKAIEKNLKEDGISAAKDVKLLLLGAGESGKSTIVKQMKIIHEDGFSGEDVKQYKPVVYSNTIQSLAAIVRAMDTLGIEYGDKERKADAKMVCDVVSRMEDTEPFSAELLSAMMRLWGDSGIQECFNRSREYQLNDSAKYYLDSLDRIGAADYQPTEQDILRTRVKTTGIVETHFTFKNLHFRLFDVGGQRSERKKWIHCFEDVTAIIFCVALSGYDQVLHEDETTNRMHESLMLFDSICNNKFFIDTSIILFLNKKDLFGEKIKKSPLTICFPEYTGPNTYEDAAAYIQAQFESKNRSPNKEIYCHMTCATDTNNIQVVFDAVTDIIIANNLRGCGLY
Chain of hD2R (D2SR), GoA activation (P62873 2-340 partner limits assumed): as the sequence (P62873 2-340 partner limits assumed) above
Chain of hD2R (D2SR), GoA activation (P59768 2-68 partner limits assumed): as the sequence (P59768 2-68 partner limits assumed) above

[5] = tested on: D2R-expressing dopaminergic neurons in VTA and SNc (GIRK activity); type: cell-based, mouse

Emax [1] | Gi1 Activation Emax [1] | EC50 [1] | Emax [2] | EC50 [2] | βArrestin2 Recruitment Emax ([3]; 30 min, hD2R in HEK293 cells, normalized to quinpirole Emax) | EC50 [4] | Emax [4] | EC50 [3] | Emax [3] | Compound | Go-protein bias over β-arrestin (hD2R) | Bias factor GoA−βarrestin (hD2R) | Bias factor Gi1–GoA activation (hD2R) | Bias factor cAMP−βarrestin (hD2R) | ligand-induced change of holding current ([5]; whole cell voltage-clamp, −60 mV, 3 and 30 μM) | ligand-induced change of holding current [5] | effect of D2R antagonist on agonist-induced holding current change [5]
8.1 ± 8.2% | low efficacy | 39.7 ± 39.7 nM | 58.5 ± 30.2% | 22.9 ± 19 nM | low efficacy | 61.1 ± 48.8 nM | 31.9 ± 7% |  |  | CC1Cc2ccccc2N1C(=O)c1nc2ccccc2s1 (stereo not shown) [Compound 2, reference compound] |  |  |  |  |  |  | 
108 ± 7.3% | fully efficacious | 144 ± 52.6 nM | 95.4 ± 4.7% | 5.2 ± 1.8 nM |  | 7.3 ± 3.6 nM | 92.1 ± 7.2% | 208 ± 173 nM | 76.4 ± 20.1% | CN(CCCCNC(=O)c1ccc2scnc2c1)[C@@H]1Cc2cccc3[nH]c(=O)n(c23)C1 [Compound 8] |  | 1.21 | –0.44 | 1.05 |  |  | 
85.1 ± 8.6% |  | 301 ± 147 nM | 84 ± 6.2% | 79.1 ± 31.7 nM |  | 117 ± 59 nM | 75.5 ± 7.8% | 794 ± 711 nM | 64.2 ± 25.6% | CN(CCCCNC(=O)c1nc2ccccc2s1)[C@@H]1Cc2cccc3[nH]c(=O)n(c23)C1 [Compound 9] |  | 0.55 | 0.43 | 0.56 |  |  | 
57.6 ± 4.9% |  | 129 ± 56.3 nM | 60.5 ± 1.5% | 6 ± 1.1 nM |  | 1 ± 0.5 nM | 74 ± 5.4% | 80.5 ± 35.7 nM | 30.5 ± 2.6% | CN(C[C@@H]1C[C@H]1CCNC(=O)c1cc2ccccc2[nH]1)[C@@H]1Cc2cccc3[nH]c(=O)n(c23)C1 [Compound 19] | > 1000 fold | 3.44 |  | 1.93 |  |  | 
72.4 ± 4.6% |  | 184 ± 63.6 nM | 59.8 ± 1.5% | 81.1 ± 13.1 nM |  | 103 ± 28.2 nM | 80.3 ± 3.8% | 208 ± 85.8 nM | 26 ± 2.1% | CN(CC[C@@H]1C[C@H]1CNC(=O)c1cc2ccccc2[nH]1)[C@@H]1Cc2cccc3[nH]c(=O)n(c23)C1 [Compound 20] | > 1000 fold | 2.50 | 0.24 | 1.39 |  |  | 

Continued, molecule first:

Compound | Emax [1] | Gi1 Activation Emax [1] | EC50 [1] | Emax [2] | EC50 [2] | βArrestin2 Recruitment Emax ([3]; 30 min, hD2R in HEK293 cells, normalized to quinpirole Emax) | EC50 [4] | Emax [4] | EC50 [3] | Emax [3] | Go-protein bias over β-arrestin (hD2R) | Bias factor GoA−βarrestin (hD2R) | Bias factor Gi1–GoA activation (hD2R) | Bias factor cAMP−βarrestin (hD2R) | ligand-induced change of holding current ([5]; whole cell voltage-clamp, −60 mV, 3 and 30 μM) | ligand-induced change of holding current [5] | effect of D2R antagonist on agonist-induced holding current change [5]
CN(CCCCNC(=O)c1cc2ccccc2[nH]1)[C@@H]1Cc2cccc3[nH]c(=O)n(c23)C1 [Compound 1] | 51 ± 4.4% |  |  |  |  |  |  |  |  |  | ~30 fold | 1.51 | –0.98 |  |  |  | 
CN[C@@H]1Cc2cccc3[nH]c(=O)n(c23)C1 [Sumanirole, (R)-5,6-dihydro-5-(methylamino)-4H-imidazo[4,5,1-ij]quinolin-2(1H)-one, reference compound] |  |  |  |  |  |  |  |  |  |  |  | 0.15 | –0.54 | –0.10 | produced an increase in the holding current |  | 
NCCc1ccc(O)c(O)c1 [dopamine] |  |  |  |  |  |  |  |  |  |  |  |  |  |  |  | produced an increase in the holding current | 
CCN1CCCC1CNC(=O)c1cc(S(N)(=O)=O)ccc1OC (stereo not shown) [sulpiride] |  |  |  |  |  |  |  |  |  |  |  |  |  |  |  |  | inhibited the change in the holding current induced by either sumanirole or 11
